Measured values reported in PMC8306566 (Marine Drugs, 2021).

Columns and labels:
Test in all cases: cell-based
rα9α10 nAChR = rα9α10 nAChR (Rattus norvegicus, UniProt P43144+Q9JLB5)
rα2β4 nAChR = rα2β4 nAChR (Rattus norvegicus, UniProt P12389+P12392)
rα7 nAChR = rα7 nAChR (Rattus norvegicus, UniProt Q05941)
rα6/α3β4 nAChR = rα6/α3β4 nAChR (Rattus norvegicus, UniProt P04757+P12392+P43143)
rα6/α3β2β3 nAChR = rα6/α3β2β3 nAChR (Rattus norvegicus, UniProt P04757+P12390+P12391+P43143)
rα3β4 nAChR = rα3β4 nAChR (Rattus norvegicus, UniProt P04757+P12392); format: cell-based
Chain of rα3β4 nAChR (P04757 26-499 limits assumed): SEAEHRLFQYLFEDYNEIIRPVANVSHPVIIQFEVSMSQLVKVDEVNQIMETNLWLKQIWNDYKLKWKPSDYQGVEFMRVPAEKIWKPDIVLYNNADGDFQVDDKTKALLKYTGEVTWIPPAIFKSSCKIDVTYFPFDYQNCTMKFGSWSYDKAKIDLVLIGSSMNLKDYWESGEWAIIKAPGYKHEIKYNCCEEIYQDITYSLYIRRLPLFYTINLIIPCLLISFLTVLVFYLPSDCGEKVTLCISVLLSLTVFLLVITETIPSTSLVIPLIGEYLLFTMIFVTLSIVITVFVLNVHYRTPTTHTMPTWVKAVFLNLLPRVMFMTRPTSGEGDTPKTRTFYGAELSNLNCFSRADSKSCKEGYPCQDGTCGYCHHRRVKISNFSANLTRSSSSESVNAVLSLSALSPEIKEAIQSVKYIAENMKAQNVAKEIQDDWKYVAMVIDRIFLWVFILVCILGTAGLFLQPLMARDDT
Chain of rα3β4 nAChR (P12392 21-495 limits assumed): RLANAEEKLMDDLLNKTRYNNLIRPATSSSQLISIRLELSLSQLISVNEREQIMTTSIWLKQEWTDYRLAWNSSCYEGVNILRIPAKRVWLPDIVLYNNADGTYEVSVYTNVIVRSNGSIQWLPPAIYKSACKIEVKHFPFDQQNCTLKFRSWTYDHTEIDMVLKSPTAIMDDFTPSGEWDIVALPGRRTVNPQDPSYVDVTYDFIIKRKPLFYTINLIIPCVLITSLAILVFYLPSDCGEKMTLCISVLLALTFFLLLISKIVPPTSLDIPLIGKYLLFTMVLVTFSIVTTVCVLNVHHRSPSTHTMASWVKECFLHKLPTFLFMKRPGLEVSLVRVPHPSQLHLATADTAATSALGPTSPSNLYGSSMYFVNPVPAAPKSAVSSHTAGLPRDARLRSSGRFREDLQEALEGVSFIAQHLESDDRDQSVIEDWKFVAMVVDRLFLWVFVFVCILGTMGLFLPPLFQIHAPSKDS

rα2β2 nAChR = rα2β2 nAChR (Rattus norvegicus, UniProt P12389+P12390)
Chain of rα2β2 nAChR (P12389 28-511 limits assumed): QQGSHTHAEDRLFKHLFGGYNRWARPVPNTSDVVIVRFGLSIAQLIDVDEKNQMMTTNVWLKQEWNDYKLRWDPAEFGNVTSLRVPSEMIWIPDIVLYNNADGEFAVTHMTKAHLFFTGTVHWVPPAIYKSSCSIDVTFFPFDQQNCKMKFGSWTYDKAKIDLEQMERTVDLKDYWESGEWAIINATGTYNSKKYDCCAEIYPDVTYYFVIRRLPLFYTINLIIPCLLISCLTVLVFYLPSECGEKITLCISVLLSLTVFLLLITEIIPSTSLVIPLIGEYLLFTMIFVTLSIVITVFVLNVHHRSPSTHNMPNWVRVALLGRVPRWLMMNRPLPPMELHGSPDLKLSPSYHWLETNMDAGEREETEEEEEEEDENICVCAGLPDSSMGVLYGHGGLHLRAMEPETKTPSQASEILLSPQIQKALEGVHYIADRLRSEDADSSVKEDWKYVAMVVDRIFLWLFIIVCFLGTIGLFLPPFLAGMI
Chain of rα2β2 nAChR (P12390 25-500 limits assumed): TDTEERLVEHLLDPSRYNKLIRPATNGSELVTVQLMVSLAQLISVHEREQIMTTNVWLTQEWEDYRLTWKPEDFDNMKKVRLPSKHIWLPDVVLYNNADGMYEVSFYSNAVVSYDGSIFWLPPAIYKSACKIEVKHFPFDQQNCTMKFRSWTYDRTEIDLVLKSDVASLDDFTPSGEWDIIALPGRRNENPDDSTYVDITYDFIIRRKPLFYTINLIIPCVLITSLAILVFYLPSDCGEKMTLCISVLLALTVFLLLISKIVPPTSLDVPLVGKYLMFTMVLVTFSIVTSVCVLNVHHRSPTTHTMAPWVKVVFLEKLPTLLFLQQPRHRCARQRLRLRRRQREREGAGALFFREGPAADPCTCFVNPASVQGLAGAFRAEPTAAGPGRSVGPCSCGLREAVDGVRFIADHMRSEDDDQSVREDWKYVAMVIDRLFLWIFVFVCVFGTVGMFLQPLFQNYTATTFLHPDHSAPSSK

rα4β4 nAChR = rα4β4 nAChR (Rattus norvegicus, UniProt P09483+P12392)
Chain of rα4β4 nAChR (P09483 31-630 limits assumed): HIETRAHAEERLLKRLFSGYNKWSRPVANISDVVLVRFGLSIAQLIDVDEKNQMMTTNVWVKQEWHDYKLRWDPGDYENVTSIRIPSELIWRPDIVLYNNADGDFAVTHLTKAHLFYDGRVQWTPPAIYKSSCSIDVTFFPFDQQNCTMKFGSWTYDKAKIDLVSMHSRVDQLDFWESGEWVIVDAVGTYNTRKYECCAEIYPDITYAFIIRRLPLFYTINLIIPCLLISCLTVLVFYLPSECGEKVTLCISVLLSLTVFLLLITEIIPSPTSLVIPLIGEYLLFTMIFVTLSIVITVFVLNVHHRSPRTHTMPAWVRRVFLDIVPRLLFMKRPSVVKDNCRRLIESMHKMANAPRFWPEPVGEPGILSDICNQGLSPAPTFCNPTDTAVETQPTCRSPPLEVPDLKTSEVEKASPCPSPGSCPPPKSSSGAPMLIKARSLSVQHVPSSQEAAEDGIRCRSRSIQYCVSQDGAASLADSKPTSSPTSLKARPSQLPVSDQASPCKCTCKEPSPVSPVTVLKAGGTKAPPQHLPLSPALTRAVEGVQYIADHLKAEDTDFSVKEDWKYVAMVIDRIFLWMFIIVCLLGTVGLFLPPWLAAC
Chain of rα4β4 nAChR (P12392 21-495 limits assumed): as the sequence (P12392 21-495 limits assumed) above

rα3β2 nAChR = rα3β2 nAChR (Rattus norvegicus, UniProt P04757+P12390)
Chain of rα3β2 nAChR (P04757 26-499 limits assumed): as the sequence (P04757 26-499 limits assumed) above
Chain of rα3β2 nAChR (P12390 25-500 limits assumed): as the sequence (P12390 25-500 limits assumed) above

rα4β2 nAChR = rα4β2 nAChR (Rattus norvegicus, UniProt P09483+P12390)
Chain of rα4β2 nAChR (P09483 31-630 limits assumed): as the sequence (P09483 31-630 limits assumed) above
Chain of rα4β2 nAChR (P12390 25-500 limits assumed): as the sequence (P12390 25-500 limits assumed) above

Chain of rα6/α3β2β3 nAChR (P04757 whole entry, looked up): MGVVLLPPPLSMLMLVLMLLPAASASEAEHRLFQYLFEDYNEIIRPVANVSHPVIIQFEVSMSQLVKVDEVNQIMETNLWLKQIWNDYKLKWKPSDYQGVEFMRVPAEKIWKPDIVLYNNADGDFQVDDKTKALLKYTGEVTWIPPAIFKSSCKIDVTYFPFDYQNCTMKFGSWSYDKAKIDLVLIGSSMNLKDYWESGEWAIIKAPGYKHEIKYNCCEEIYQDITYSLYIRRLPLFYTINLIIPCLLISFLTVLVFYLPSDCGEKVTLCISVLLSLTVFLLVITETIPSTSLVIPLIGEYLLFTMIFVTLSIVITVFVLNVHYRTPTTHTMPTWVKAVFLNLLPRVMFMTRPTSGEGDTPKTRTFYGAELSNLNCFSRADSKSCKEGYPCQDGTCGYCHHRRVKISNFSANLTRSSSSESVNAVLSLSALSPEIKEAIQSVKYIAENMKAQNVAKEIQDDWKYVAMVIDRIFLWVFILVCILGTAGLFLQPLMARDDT
Chain of rα6/α3β2β3 nAChR (P12390 whole entry, looked up): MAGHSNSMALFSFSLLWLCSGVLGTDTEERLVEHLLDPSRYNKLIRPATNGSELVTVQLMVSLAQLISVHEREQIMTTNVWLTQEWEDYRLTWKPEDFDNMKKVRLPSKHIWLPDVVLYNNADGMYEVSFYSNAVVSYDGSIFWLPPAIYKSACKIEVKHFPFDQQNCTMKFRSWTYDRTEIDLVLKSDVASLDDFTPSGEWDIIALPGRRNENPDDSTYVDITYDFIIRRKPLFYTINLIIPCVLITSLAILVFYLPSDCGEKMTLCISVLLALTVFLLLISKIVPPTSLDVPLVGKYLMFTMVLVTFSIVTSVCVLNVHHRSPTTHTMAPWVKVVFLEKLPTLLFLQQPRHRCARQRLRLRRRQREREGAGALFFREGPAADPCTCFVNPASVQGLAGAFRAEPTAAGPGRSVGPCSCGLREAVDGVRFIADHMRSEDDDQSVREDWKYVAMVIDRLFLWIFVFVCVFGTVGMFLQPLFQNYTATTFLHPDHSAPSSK
Chain of rα6/α3β2β3 nAChR (P12391 whole entry, looked up): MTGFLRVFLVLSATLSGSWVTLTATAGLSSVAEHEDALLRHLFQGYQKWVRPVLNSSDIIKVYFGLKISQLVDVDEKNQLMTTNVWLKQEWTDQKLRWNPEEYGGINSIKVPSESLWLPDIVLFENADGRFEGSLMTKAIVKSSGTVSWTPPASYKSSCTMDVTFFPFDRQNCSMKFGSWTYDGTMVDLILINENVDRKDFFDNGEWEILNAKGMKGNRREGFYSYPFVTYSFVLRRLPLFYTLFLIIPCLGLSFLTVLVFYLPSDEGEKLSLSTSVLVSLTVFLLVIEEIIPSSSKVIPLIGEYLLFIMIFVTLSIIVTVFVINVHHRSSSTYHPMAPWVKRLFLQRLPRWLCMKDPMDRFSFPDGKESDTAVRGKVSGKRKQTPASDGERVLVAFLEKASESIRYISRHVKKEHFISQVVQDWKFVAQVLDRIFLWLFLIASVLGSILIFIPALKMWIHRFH
Chain of rα6/α3β2β3 nAChR (P43143 whole entry, looked up): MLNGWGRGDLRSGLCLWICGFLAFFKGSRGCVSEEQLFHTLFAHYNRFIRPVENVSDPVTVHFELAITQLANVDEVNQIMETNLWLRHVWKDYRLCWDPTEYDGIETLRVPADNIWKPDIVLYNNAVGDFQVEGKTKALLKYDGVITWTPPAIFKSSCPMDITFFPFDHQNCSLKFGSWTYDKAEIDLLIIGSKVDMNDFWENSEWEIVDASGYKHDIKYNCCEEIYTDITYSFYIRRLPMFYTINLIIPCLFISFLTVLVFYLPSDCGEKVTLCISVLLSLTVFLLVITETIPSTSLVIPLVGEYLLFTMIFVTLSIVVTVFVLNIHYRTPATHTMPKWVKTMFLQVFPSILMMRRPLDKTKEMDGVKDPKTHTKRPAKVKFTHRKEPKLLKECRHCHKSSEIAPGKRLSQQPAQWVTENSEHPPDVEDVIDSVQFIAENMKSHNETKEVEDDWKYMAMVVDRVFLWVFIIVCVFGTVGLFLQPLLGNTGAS
Chain of rα2β4 nAChR (P12389 28-511 limits assumed): as the sequence (P12389 28-511 limits assumed) above
Chain of rα2β4 nAChR (P12392 21-495 limits assumed): as the sequence (P12392 21-495 limits assumed) above

SMILES: CC[C@H](C)[C@@H]1NC(=O)[C@H](CC(=O)O)NC(=O)[C@H](CCC(N)=O)NC(=O)[C@H](CC(N)=O)NC(=O)[C@H](CC(N)=O)NC(=O)CNC(=O)[C@H](C)NC(=O)[C@@H]2CSSC[C@H](NC(=O)CN)C(=O)N[C@@H](CSSC[C@@H](C(N)=O)NC1=O)C(=O)N[C@@H](CO)C(=O)N[C@@H](Cc1c[nH]cn1)C(=O)N1CCC[C@H]1C(=O)N[C@@H](C)C(=O)N2 [LvIF]
- IC50 (rα9α10 nAChR): > 10 µM
- inhibition at 10 µM (rα9α10 nAChR; read-out: inhibition at 10 μM): 1.31 ± 5.2%
- IC50 (rα2β4 nAChR): > 10 µM
- inhibition at 10 µM (rα2β4 nAChR; read-out: inhibition at 10 μM): 9.5 ± 2.4%
- IC50 (rα7 nAChR): > 10 µM
- inhibition at 10 µM (rα7 nAChR; read-out: inhibition at 10 μM): 12.3 ± 4.2%
- IC50 (rα6/α3β4 nAChR): > 10 µM
- inhibition at 10 µM (rα6/α3β4 nAChR; read-out: inhibition at 10 μM): 2.3 ± 3.3%
- IC50 (rα6/α3β2β3 nAChR): 0.0144 µM
- inhibition at 0.01 µM (rα6/α3β2β3 nAChR; read-out: inhibition at 10 nM): ~39%
- inhibition at 10 µM (rα6/α3β2β3 nAChR; read-out: inhibition at 10 μM): 98.3 ± 0.3%
- IC50 (rα3β4 nAChR): > 10 µM
- inhibition at 1 μM (rα3β4 nAChR): no inhibition
- IC50 (rα2β2 nAChR): > 10 µM
- inhibition at 10 µM (rα2β2 nAChR; read-out: inhibition at 10 μM): 6.7 ± 4.5%
- IC50 (rα4β4 nAChR): > 10 µM
- inhibition at 10 µM (rα4β4 nAChR; read-out: inhibition at 10 μM): 8.6 ± 4.2%
- IC50 (rα3β2 nAChR): 0.00898 µM
- inhibition at 0.01 µM (rα3β2 nAChR; read-out: inhibition at 10 nM): ~57%
- inhibition at 10 µM (rα3β2 nAChR; read-out: inhibition at 10 μM): 98.3 ± 0.6%
- IC50 (rα4β2 nAChR): > 10 µM
- inhibition at 10 µM (rα4β2 nAChR; read-out: inhibition at 10 μM): 4.6 ± 2.5%
